Reference: US20220306695A1, “COMPSTATIN ANALOGUES AND THEIR MEDICAL USES” (priority 2019, published 2022)
Like-named read-outs stand apart in the source and are kept apart here. Each block holds one molecule with its values, some of them ahead of it. Starred links: 1 amine or outer side, 2 acyl side, 3 side chain; linkers in the order of their positions; H or OH if unused. Positions of bridges follow the written chain, without caps; N, C: chain ends. Non-standard residues stand in square brackets, D forms with d. Residues, ends and D or L forms follow the SMILES beside them. Groups on a side chain read outwards from the residue. *: point of attachment. Trp(1-Me) = Cn1cc(C[C@H](N)C(=O)O)c2ccccc21; Abu(4-yl) = O=C([C@H](CC[*:3])N[*:1])[*:2]; C18 diacid = O=C(O)CCCCCCCCCCCCCCCCC(=O)*; γGlu = O=C(O)[C@H](CCC(=O)[*:2])N[*:1]; AEEA = NCCOCCOCC(=O)O; Sar = CNCC(=O)O

Columns and labels:
[1] = system: classical complement pathway; assay: In vitro haemolysis assay (inhibition of classical complement pathway); assay type: cell-based, human; settings: Table 3; human serum, sensitized sheep red blood cells; read-out: IC50[nM], in vitro analysis of inhibition of hemolysis
Method in brief: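 Serially diluted compound (9 points) was preincubated 15 min at room temperature with diluted human serum, titrated per batch to give 70-90% maximal haemolysis, in Tris/casein buffer pH 7.4 with Mg2+/Ca2+. Antibody-sensitized sheep erythrocytes were then added for 30 min at 37° C, and the reaction was stopped with EDTA. Haemolysis was read at A405, with IC50 from 4PL fit.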

Human C3 [2] = target: T1, Human C3 (Homo sapiens, UniProt P01024); assay: Affinity measurement by surface plasmon resonance (SPR) with immobilized C3; assay type: binding; settings: Table 7; immobilized C3, 25° C., pH 7.4
T1 construct: purchased Complement tech A1 13c (so in the source)
Experimental: Surface plasmon resonance (SPR) was used to characterize peptides with respect to their binding affinity (Kd) for C3. Human C3 (Complement tech cat #A1 13c) was immobilised on individual flow cells of CM5 sensor chips (GE Healthcare) using standard amine coupling to a density of approximately 3000 resonance units (RU) in a buffer consisting of 10 mM phosphate pH 7.4, 150 mM NaCl, 0.05% Tween20. For interaction experiments a multi-cycle experiment approach was used and performed using either a Biacore™ T200 or Biacore™ X100 instrument (GE Healthcare) at 25° C. Peptides were injected in increasing concentration series (5-8 different concentrations) for 60-120 s at a flow rate of 30 μL/min in a buffer consisting of 10 mM Tris buffer at pH 7.4, with 150 mM NaCl and 0.05% Tween20. This was followed by a dissociation period for up to 10 min. […] Sensorgrams were double-referenced (reference surface, blanks) prior to analysis of the kinetic profiles by globally fitting data to a 1:1 Langmuir binding model to obtain association and dissociation rates for calculation of the equilibrium dissociation constant Kd. Each peptide was tested at in at least 2 independent experiments.

in vivo = assay: in vivo; parameters: species or system Cynomolgus monkeys (Macaca fascicularis); settings: male, cynomolgus monkey, sc, 1840 nmol/kg; for half-life: t½
Method in brief: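 Healthy male cynomolgus monkeys dosed once subcutaneously at 1840 nmol/kg in 20 mM phosphate pH 7.5 with mannitol. Serum sampled pre-dose to 120 h and total drug measured by SPE and LC-MS/MS. Terminal half-life calculated non-compartmentally as ln(2)/λz from the terminal log-linear phase.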

[3] = Solubility test at 10 mg/mL (visual inspection and light scattering); assay type: physicochemical
[4] = assay type: physicochemical; settings: 50 mg/mL peptide; for Covalent oligomer content after 14 days 40° C. (%), F1 / Purity after 14 days 40° C. (%), F1: F1: 20 mM phosphate pH 5.5; for Covalent oligomer content after 14 days 40° C. (%), F1 / Covalent oligomer content after 14 days 40° C. (%), F2: denaturing SEC; for Purity after 14 days 40° C. (%), F1 / Purity after 14 days 40° C. (%), F2 / Purity after 14 days 40° C. (%), F3: normalized purity (HPLC)
Method in brief: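 Compstatin analogues with cystathionine or disulfide bridge held at 50 mg/mL in 20 mM phosphate pH 5.5, 6.5 or 7.5 and stored 14 days at 40 °C. At 0, 7 and 14 days, samples diluted to 2 mg/mL; purity by reverse-phase HPLC (220 nm) and covalent oligomer content by denaturing SEC (215 nm), from integrated chromatograms.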

Human C3 [5] = target: Human C3 (human, UniProt P01024 23-1663); assay: cell-based or functional assay
Chain of Human C3 (human, UniProt P01024 23-1663) (P01024 23-1663 limits assumed): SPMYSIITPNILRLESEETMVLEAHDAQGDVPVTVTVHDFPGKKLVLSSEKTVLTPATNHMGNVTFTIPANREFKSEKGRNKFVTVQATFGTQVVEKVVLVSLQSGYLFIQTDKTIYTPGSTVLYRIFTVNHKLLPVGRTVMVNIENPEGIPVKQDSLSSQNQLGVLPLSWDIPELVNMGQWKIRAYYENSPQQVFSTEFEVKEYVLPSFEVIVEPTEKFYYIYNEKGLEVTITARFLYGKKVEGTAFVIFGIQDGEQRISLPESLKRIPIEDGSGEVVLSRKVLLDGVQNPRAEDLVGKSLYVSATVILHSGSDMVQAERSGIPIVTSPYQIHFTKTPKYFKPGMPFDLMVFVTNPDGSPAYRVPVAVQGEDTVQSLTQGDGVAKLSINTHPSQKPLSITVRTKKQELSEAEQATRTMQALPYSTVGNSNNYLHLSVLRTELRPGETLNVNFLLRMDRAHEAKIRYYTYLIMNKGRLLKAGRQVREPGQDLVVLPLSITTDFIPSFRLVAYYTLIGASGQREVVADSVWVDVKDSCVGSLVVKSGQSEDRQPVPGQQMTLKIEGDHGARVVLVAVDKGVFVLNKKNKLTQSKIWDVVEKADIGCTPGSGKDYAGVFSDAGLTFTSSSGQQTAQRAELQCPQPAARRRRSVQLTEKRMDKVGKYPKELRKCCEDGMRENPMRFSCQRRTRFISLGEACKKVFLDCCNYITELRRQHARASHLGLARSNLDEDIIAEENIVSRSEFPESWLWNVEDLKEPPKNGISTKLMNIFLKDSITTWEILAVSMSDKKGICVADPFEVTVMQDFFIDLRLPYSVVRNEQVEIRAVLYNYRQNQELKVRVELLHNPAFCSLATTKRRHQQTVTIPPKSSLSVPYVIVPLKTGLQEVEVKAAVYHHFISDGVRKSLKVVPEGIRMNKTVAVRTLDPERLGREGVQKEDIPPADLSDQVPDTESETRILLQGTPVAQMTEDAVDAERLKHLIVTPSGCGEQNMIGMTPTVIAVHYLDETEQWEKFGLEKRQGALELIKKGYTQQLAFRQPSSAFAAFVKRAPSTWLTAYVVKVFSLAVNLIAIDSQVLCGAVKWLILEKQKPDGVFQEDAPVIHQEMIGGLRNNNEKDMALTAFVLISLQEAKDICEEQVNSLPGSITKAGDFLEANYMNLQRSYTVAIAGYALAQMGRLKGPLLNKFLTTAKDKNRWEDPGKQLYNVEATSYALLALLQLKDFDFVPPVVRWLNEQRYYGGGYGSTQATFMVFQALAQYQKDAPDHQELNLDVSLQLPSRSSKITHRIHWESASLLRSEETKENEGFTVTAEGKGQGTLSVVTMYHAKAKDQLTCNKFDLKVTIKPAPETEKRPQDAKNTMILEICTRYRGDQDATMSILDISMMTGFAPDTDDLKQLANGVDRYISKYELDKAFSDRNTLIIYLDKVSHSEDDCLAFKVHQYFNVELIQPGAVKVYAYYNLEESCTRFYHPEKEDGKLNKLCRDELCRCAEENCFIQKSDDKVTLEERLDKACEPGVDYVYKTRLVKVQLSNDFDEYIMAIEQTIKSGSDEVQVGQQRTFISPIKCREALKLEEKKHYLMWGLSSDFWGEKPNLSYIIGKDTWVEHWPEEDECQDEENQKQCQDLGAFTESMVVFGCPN

B1: Compound C (peptide)
peptide: Ac-ESSAICVWQDWGEHRCT-NH2
modifications: disulfide 6-16
SMILES: CC[C@H](C)[C@H](NC(=O)[C@H](C)NC(=O)[C@H](CO)NC(=O)[C@H](CO)NC(=O)[C@H](CCC(=O)O)NC(C)=O)C(=O)N[C@H]1CSSC[C@@H](C(=O)N[C@H](C(N)=O)[C@@H](C)O)NC(=O)[C@H](CCCNC(=N)N)NC(=O)[C@H](Cc2c[nH]cn2)NC(=O)[C@H](CCC(=O)O)NC(=O)CNC(=O)[C@H](Cc2c[nH]c3ccccc23)NC(=O)[C@H](CC(=O)O)NC(=O)[C@H](CCC(N)=O)NC(=O)[C@H](Cc2c[nH]c3ccccc23)NC(=O)[C@H](C(C)C)NC1=O
CP hemolysis IC50 (Human C3 [5]): 300 nM

B2: Compound E (peptide)
peptide: Ac-ICVWQDWGAHSCT-NH2
modifications: disulfide 2-12
SMILES: CC[C@H](C)[C@H](NC(C)=O)C(=O)N[C@H]1CSSC[C@@H](C(=O)N[C@H](C(N)=O)[C@@H](C)O)NC(=O)[C@H](CO)NC(=O)[C@H](Cc2c[nH]cn2)NC(=O)[C@H](C)NC(=O)CNC(=O)[C@H](Cc2c[nH]c3ccccc23)NC(=O)[C@H](CC(=O)O)NC(=O)[C@H](CCC(N)=O)NC(=O)[C@H](Cc2c[nH]c3ccccc23)NC(=O)[C@H](C(C)C)NC1=O
CP hemolysis IC50 (Human C3 [5]): > 1000 nM

B3: Compound B (peptide)
peptide: Ac-ICVWQDWGSHRCT-NH2
modifications: disulfide 2-12
SMILES: CC[C@H](C)[C@H](NC(C)=O)C(=O)N[C@H]1CSSC[C@@H](C(=O)N[C@H](C(N)=O)[C@@H](C)O)NC(=O)[C@H](CCCNC(=N)N)NC(=O)[C@H](Cc2c[nH]cn2)NC(=O)[C@H](CO)NC(=O)CNC(=O)[C@H](Cc2c[nH]c3ccccc23)NC(=O)[C@H](CC(=O)O)NC(=O)[C@H](CCC(N)=O)NC(=O)[C@H](Cc2c[nH]c3ccccc23)NC(=O)[C@H](C(C)C)NC1=O
CP hemolysis IC50 (Human C3 [5]): 360 nM

Further lines, with some results ahead:

Kd (Human C3 [2]): 5.4 nM | half-life (in vivo): 93.9 h
Molecule: CC[C@H](C)[C@@H]1NC(=O)[C@@H](NC(=O)[C@H](Cc2ccc(O)cc2)NC(=O)[C@H](C)NC(=O)[C@H](CO)NC(C)=O)CSSC[C@@H](C(=O)N(C)CC(=O)N[C@@H](CCC(=O)O)C(=O)N[C@@H](CCCCNC(=O)CC[C@H](NC(=O)CNC(=O)CC[C@H](NC(=O)CCCCCCCCCCCCCCCCC(=O)O)C(=O)O)C(=O)O)C(N)=O)NC(=O)[C@H](CCCNC(=N)N)NC(=O)[C@H](Cc2c[nH]cn2)NC(=O)[C@H](CCC(=O)O)NC(=O)CNC(=O)[C@H](Cc2c[nH]c3ccccc23)NC(=O)[C@H](CC(=O)O)NC(=O)[C@H](CCC(N)=O)NC(=O)[C@H](Cc2cn(C)c3ccccc23)NC1=O [Compound 106] (Ac-SAYCI[Trp(1-Me)]QDWGEHRC[Sar]EK([γGlu-Gly-γGlu-C18 diacid])-NH2; disulfide 4-14)
IC50 [1]: < 250 nM

Kd (Human C3 [2]): 11 nM | t½ (in vivo): 155 h | half-life (in vivo): 78.7 h
Molecule: CC[C@H](C)[C@@H]1NC(=O)[C@@H](NC(=O)[C@H](Cc2ccc(O)cc2)NC(=O)[C@H](CCC(=O)O)NC(=O)[C@H](CO)NC(C)=O)CSSC[C@@H](C(=O)N(C)CC(=O)N[C@@H](CCC(=O)O)C(=O)NCC(=O)N[C@@H](C)C(=O)N[C@@H](CCCCNC(=O)COCCOCCNC(=O)CC[C@H](NC(=O)COCCOCCNC(=O)CNC(=O)CC[C@H](NC(=O)CCCCCCCCCCCCCCCCC(=O)O)C(=O)O)C(=O)O)C(N)=O)NC(=O)[C@H](CCCNC(=N)N)NC(=O)[C@H](Cc2c[nH]cn2)NC(=O)[C@H](CCC(=O)O)NC(=O)CNC(=O)[C@H](Cc2c[nH]c3ccccc23)NC(=O)[C@H](CC(=O)O)NC(=O)[C@H](CCC(N)=O)NC(=O)[C@H](Cc2cn(C)c3ccccc23)NC1=O [Compound 118] (Ac-SEYCI[Trp(1-Me)]QDWGEHRC[Sar]EGAK([AEEA-γGlu-AEEA-Gly-γGlu-C18 diacid])-NH2; disulfide 4-14)
IC50 [1]: < 100 nM | Solubility, Condition 1 Acetate pH 4 ([3]; 10 mg/mL compound in 100 mM acetate pH 4): − (denotes lack of solubility at the given condition, as UV absorbance at 340 nm exceeds 0.1 AU and/or it is visibly turbid or contains particles.) | Solubility, Condition 2 Acetate pH 5 ([3]; 10 mg/mL compound in 100 mM acetate pH 5): + (denotes solubility at the given condition, as determined by UV absorbance being less than 0.1 AU at 340 nm and the sample being clear when manually inspected.) | Solubility, Condition 3 Phosphate pH 6 ([3]; 10 mg/mL compound in 100 mM phosphate pH 6): + (denotes solubility at the given condition, as determined by UV absorbance being less than 0.1 AU at 340 nm and the sample being clear when manually inspected.) | Solubility, Condition 4 Phosphate pH 7 ([3]; 10 mg/mL compound in 100 mM phosphate pH 7): + (denotes solubility at the given condition, as determined by UV absorbance being less than 0.1 AU at 340 nm and the sample being clear when manually inspected.) | Solubility, Condition 5 Phosphate pH 7.5 ([3]; 10 mg/mL compound in 100 mM phosphate pH 7.5): + (denotes solubility at the given condition, as determined by UV absorbance being less than 0.1 AU at 340 nm and the sample being clear when manually inspected.)

Kd (Human C3 [2]): 11 nM | half-life (in vivo): 105 h | Covalent oligomer content after 14 days 40° C. (%), F1 [4]: 52% | Purity after 14 days 40° C. (%), F1 [4]: 56% | Covalent oligomer content after 14 days 40° C. (%), F2 ([4]; F2: 20 mM phosphate pH 6.5): 48% | Purity after 14 days 40° C. (%), F2 ([4]; F2: 20 mM phosphate pH 6.5): 54% | Covalent oligomer content after 14 days 40° C. (%), F2 ([4]; F3: 20 mM phosphate pH 7.5): 45% | Purity after 14 days 40° C. (%), F3 ([4]; F3: 20 mM phosphate pH 7.5): 54%
Molecule: CC[C@H](C)[C@@H]1NC(=O)[C@@H](NC(=O)[C@H](Cc2ccccc2)NC(=O)[C@H](CCC(=O)O)NC(=O)[C@H](CO)NC(C)=O)CSSC[C@@H](C(=O)N(C)CC(=O)N[C@@H](CCC(=O)O)C(=O)NCC(=O)N[C@@H](CCC(=O)O)C(=O)NCCOCCOCC(=O)NCCOCCOCC(=O)N[C@@H](CCCCNC(=O)CC[C@H](NC(=O)CNC(=O)CC[C@H](NC(=O)CCCCCCCCCCCCCCCCC(=O)O)C(=O)O)C(=O)O)C(N)=O)NC(=O)[C@H](CCCNC(=N)N)NC(=O)[C@H](Cc2c[nH]cn2)NC(=O)[C@H](CCC(=O)O)NC(=O)CNC(=O)[C@H](Cc2c[nH]c3ccccc23)NC(=O)[C@H](CC(=O)O)NC(=O)[C@H](CCC(N)=O)NC(=O)[C@H](Cc2cn(C)c3ccccc23)NC1=O [Compound 123] (Ac-SEFCI[Trp(1-Me)]QDWGEHRC[Sar]EGE[AEEA][AEEA]K([γGlu-Gly-γGlu-C18 diacid])-NH2; disulfide 4-14)
IC50 [1]: < 100 nM

Kd (Human C3 [2]): 3.4 nM | half-life (in vivo): 129 h | Covalent oligomer content after 14 days 40° C. (%), F1 [4]: 0.7% | Purity after 14 days 40° C. (%), F1 [4]: 93% | Covalent oligomer content after 14 days 40° C. (%), F2 ([4]; F2: 20 mM phosphate pH 6.5): 0.0% | Purity after 14 days 40° C. (%), F2 ([4]; F2: 20 mM phosphate pH 6.5): 97% | Covalent oligomer content after 14 days 40° C. (%), F2 ([4]; F3: 20 mM phosphate pH 7.5): 0.1% | Purity after 14 days 40° C. (%), F3 ([4]; F3: 20 mM phosphate pH 7.5): 97%
Molecule: CC[C@H](C)[C@@H]1NC(=O)[C@@H](NC(=O)[C@H](Cc2ccccc2)NC(=O)[C@H](CCC(=O)O)NC(=O)[C@H](CO)NC(C)=O)CSCC[C@@H](C(=O)N[C@H](C(=O)N[C@@H](CCC(=O)O)C(=O)NCC(=O)N[C@@H](CCC(=O)O)C(=O)NCCOCCOCC(=O)N[C@@H](CCC(=O)O)C(=O)N[C@@H](CO)C(=O)N[C@@H](CCCCNC(=O)CC[C@H](NC(=O)CCCCCCCCCCCCCCCCC(=O)O)C(=O)O)C(N)=O)[C@@H](C)O)NC(=O)[C@H](CCCNC(=N)N)NC(=O)[C@H](Cc2c[nH]cn2)NC(=O)[C@H](CCC(=O)O)NC(=O)CNC(=O)[C@H](Cc2c[nH]c3ccccc23)NC(=O)[C@H](CC(=O)O)NC(=O)[C@H](CCC(N)=O)NC(=O)[C@H](Cc2cn(C)c3ccccc23)NC1=O [Compound 148, Ac-SEFA(1)I[1-Me-Trp]QDWGEHRhC(1)TEGE[Peg3]ES-K([17-carboxy-heptadecanoyl][γGlu])-NH2] (Ac-SEFCI[Trp(1-Me)]QDWGEHR[Abu(4-yl)]TEGE[AEEA]ESK([γGlu-C18 diacid])-NH2; thioether 4-14)
IC50 [1]: < 100 nM
